# Data reported in paper PMC9218685, “Legume Plant Peptides as Sources of Novel Antimicrobial Molecules Against Human Pathogens” (Frontiers in Molecular Biosciences, 2022).
# “Also recorded” adds a separate entry of the source. Ends that are not written are not given here. Peptide text beside a SMILES is read from it.
# Tests used:
# [1] = test system: A. baumannii; test: Scanning electron microscopy of cell morphology; assay type: cell-based, Acinetobacter baumannii; details: 30 min treatment, peptide 1.6 or 3.125 µM as in Figure 3 legend
# Method: A. baumannii and C. albicans were grown and treated the same way as for the membrane permeability assay. Cells were then fixed with 2.5% (v/v) glutaraldehyde in phosphate buffered saline (PBS, pH 7.4). 5 μl of the above bacterial and yeast suspensions were spotted on a silicon disk coated with 0.01% Poly-L-Lysine. The filters were washed twice with PBS and gradually dehydrated with ethanol series (30, 50, 70, 80%, and three times 100% ethanol, each for minimum 30 min). The samples were dried with a critical point dryer (K850: Quorum Technologies Ltd.), followed by 12 nm gold coating and observed under a JEOL JSM-7100F/LV scanning electron microscope.
# FIGURE 3 Viability, membrane permeability and morphology of A. baumannii cells after NCR treatment (A–L) SYTO9/PI staining observed with confocal microscope, (M–X) Cell morphology observed with SEM. (A,M) untreated control, (B,N) CaNCR13, 3.125 µM, (C,O) CaNCR63, 3.125 µM, (D,P) CaNCR63_1-20, 3.125 µM, (E,Q) CaNCR63_15-34, 3.125 µM, (F,R) MsNCR443, 3.125 µM, (G,S) MsNCR463_16-35, 1.6 µM, (H,T) MsNCR463_17-30, 3.125 µM, (I,U) PsNCR349, 1.6 µM, (J,V) PsNCR349_26-50, 3.125 µM, (K,W) PsNCR349_31-50, 3.125 µM, (L,X) PsNCR352, 1.6 µM.
# [2] = test system: Acinetobacter baumannii (ATCC 17978); test: microbe, parasite or virus in culture; assay type: cell-based; details: ATCC 17978, 3 h
# How it was run: (§1)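 Peptides were serially diluted two-fold from 25 µM to 0.8 µM and incubated 3 h with roughly 10^7 log-phase cells in potassium-phosphate buffer at pH 7.4; complete killing of viable bacteria defined the minimal bactericidal concentration.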
# [3] = test system: Candida albicans W01 strain; test: microbe, parasite or virus in culture; assay type: cell-based; details: C. albicans W01, two-fold dilution series; lowest concentration completely eliminating viable C. albicans; read-out: MFC, minimal fungicidal concentration against C. albicans
# Description: The following pathogenic bacterial strains were used: The Gram-positive Enterococcus faecalis (ATCC 29212), Staphylococcus aureus (HNCMO112011), Listeria monocytogenes (ATCC 19111) and the Gram-negative Pseudomonas aeruginosa (ATCC 27853), Escherichia coli (ATCC 8739), Salmonella enterica (ATCC 13076), Klebsiella pneumoniae (NCTC 13440), Acinetobacter baumannii (ATCC 17978) obtained from the ATCC (United States) and NCTC (National Collection of Type Cultures–England). For the antifungal experiment the Candida albicans W01 strain ([Ördögh et al., 2014]) was used. Antimicrobial activities of peptides against ∼10^7 log phase bacteria were tested in Potassium-Phosphate Buffer (PPB, pH 7.4) as described by [Jenei et al. (2020)] while anti-Candida assays were done according to [Szerencsés et al. (2021)]. The two-fold dilution series of peptides ranged from 25 μM to 0.125 μM, while that of the antibiotics ampicillin (Merck) and miconazole (Duchefa Biochemie) from […] to 0.1 μM. The lowest concentration of the antimicrobial agents, which completely eliminated viable bacteria or C. albicans were considered as the minimal bactericidal concentration (MBC) and minimal fungicidal concentration (MFC).
# [4] = test system: Lambda DNA/HindIII marker; test: Gel retardation assay (DNA aggregation); assay type: binding; details: 100 ng DNA, 5 or 10 µM peptide in water, 30 min at room temperature, 1% agarose gel
# Method: Interactions of peptides with DNA was visualized with gel retardation assay ([Hsu et al., 2005]). 100 ng Lambda DNA/HindIII marker (ThermoFisher Scientific) was incubated with 0, 5 or 10 µM synthetic NCRs or NCR derivatives in water for 30 min at room temperature and then loaded into 1% agarose gel. Electrophoresis of DNA fragments separated the mobile HindIII-digested DNA fragments while the aggregated DNA remained in the loading wells.
# FIGURE 6 Aggregation of DNA by NCR peptides. Lambda HindIII digested DNA was incubated without (0) or with NCR peptides at 5 or 10 μM concentration.
# [5] = test system: Enterococcus faecalis (ATCC 29212); assay type: cell-based; details: for Ability to kill E. faecalis: 3 h, ~10^7 log phase bacteria, peptides ≤25 µM; for MBC Enterococcus faecalis: ATCC 29212, 3 h
# How it was run: as §1
# [6] = test system: Pseudomonas aeruginosa (ATCC 27853); assay type: cell-based; details: ATCC 27853, 3 h
# How it was run: as §1
# [7] = test system: Escherichia coli (ATCC 8739); assay type: cell-based; details: ATCC 8739, 3 h
# How it was run: as §1
# [8] = test system: Staphylococcus aureus (HNCMO112011); assay type: cell-based; details: HNCMO112011, 3 h
# How it was run: as §1
# [9] = test system: Listeria monocytogenes (ATCC 19111); assay type: cell-based; details: ATCC 19111, 3 h
# How it was run: as §1
# [10] = test system: Salmonella enterica (ATCC 13076); assay type: cell-based; details: ATCC 13076, 3 h
# How it was run: as §1
# [11] = test system: E. coli, S. enteritidis, P. aeruginosa, L. monocytogenes, S. aureus, E. faecalis, K. pneumoniae and A. baumannii; test: Antimicrobial activity assay, spectrum over the eight tested pathogenic bacteria; assay type: cell-based; details: 3 h treatment of ~10^7 log phase bacteria, peptides 25 to 0.8 µM; active = MBC ≤25 µM
# How it was run: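 MBC taken as the lowest peptide concentration leaving no viable bacteria after 3 h exposure of ~10^7 log-phase cells. Peptides tested by 2-fold serial dilution, 25 µM down to 0.8 µM, in PPB (pH 7.4). Gram-positive and Gram-negative reference strains from ATCC, NCTC and HNCMO collections.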
# [12] = test system: Klebsiella pneumoniae (NCTC 13440); assay type: cell-based; details: NCTC 13440, 3 h
# How it was run: as §1
Compound,Morphology of A. baumannii cells by SEM [1],Aggregation of HindIII-digested λ DNA (DNA retained in loading wells) [4],Ability to kill E. faecalis [5],MBC Enterococcus faecalis [5],MBC Pseudomonas aeruginosa [6],MBC Escherichia coli [7],MBC Staphylococcus aureus [8],MBC Salmonella enterica [10],Antibacterial spectrum over the eight tested bacterial strains [11],other results
CSCC[C@H](NC(=O)[C@H](CC(N)=O)NC(=O)[C@H](Cc1ccccc1)NC(=O)[C@@H](NC(=O)[C@H](CC(C)C)NC(=O)[C@H](CCCCN)NC(=O)[C@H](CCCCN)NC(=O)[C@H](CCCCN)NC(=O)[C@H](CCCCN)NC(=O)[C@H](CCCCN)NC(=O)[C@H](CC(C)C)NC(=O)[C@H](CCCCN)NC(=O)[C@H](CCCCN)NC(=O)[C@H](CCCCN)NC(=O)[C@H](Cc1c[nH]cn1)NC(=O)[C@H](CCCCN)NC(=O)[C@H](CCC(N)=O)NC(=O)[C@@H](NC(=O)[C@H](CS)NC(=O)[C@H](Cc1ccc(O)cc1)NC(=O)[C@H](CS)NC(=O)[C@@H](NC(=O)[C@H](CCCCN)NC(=O)[C@H](Cc1c[nH]c2ccccc12)NC(=O)[C@@H](N)C(C)C)[C@@H](C)O)C(C)C)[C@@H](C)O)C(N)=O [PsNCR349_26-50] (H-VWKTCYCVQKHKKKLKKKKKLTFNM-NH2; N-terminus assumed),Filament-like structures,DNA remained in the wells,–,–,–,–,–,–,–,"MBC ([2]; pH 7.4, read-out: MBC, minimal bactericidal concentration against A. baumannii): 3.125 µM; MFC [3]: 3.125 µM"
CC[C@H](C)[C@H](NC(=O)[C@H](CO)NC(=O)[C@@H](NC(=O)[C@H](CO)NC(=O)[C@@H]1CCCN1C(=O)[C@@H]1CCCN1C(=O)[C@H](CS)NC(=O)[C@H](CC(=O)O)NC(=O)[C@@H](NC(=O)[C@H](CC(=O)O)NC(=O)[C@@H](NC(=O)[C@H](CCCCN)NC(=O)[C@H](CS)NC(=O)[C@H](CCCCN)NC(=O)[C@@H](NC(=O)[C@H](C)NC(=O)[C@@H](NC(=O)[C@H](C)N)C(C)C)[C@@H](C)O)[C@@H](C)O)C(C)C)[C@@H](C)O)C(=O)N[C@@H](CCCNC(=N)N)C(=O)N[C@@H](CCCNC(=N)N)C(=O)N[C@@H](Cc1ccc(O)cc1)C(=O)N[C@@H](CCCCN)C(=O)N[C@@H](CS)C(=O)N[C@H](C(=O)N[C@@H](CCCCN)C(=O)N[C@@H](CC(N)=O)C(=O)N[C@@H](CCCCN)C(=O)N[C@@H](CS)C(=O)N[C@@H](CCCNC(=N)N)C(=O)N[C@@H](Cc1ccc(O)cc1)C(=O)N[C@H](C(=O)N[C@@H](CCCNC(=N)N)C(=O)N[C@@H](CC(C)C)C(=O)N[C@@H](CO)C(=O)N[C@@H](Cc1ccc(O)cc1)C(=O)NCC(N)=O)[C@@H](C)O)[C@@H](C)O [PsNCR351] (H-AVATKCKTDVDCPPSTSIRRYKCTKNKCRYTRLSYG-NH2; N-terminus assumed),–,–,able to kill,12.5 µM,3.125 µM,3.125 µM,6.25 µM,25 µM,–,MBC Acinetobacter baumannii [2]: 3.125 µM; MBC Listeria monocytogenes [9]: 6.25 µM
CC[C@H](C)[C@H](NC(=O)[C@H](CCCCN)NC(=O)[C@H](CO)NC(=O)[C@H](CCCNC(=N)N)NC(=O)[C@@H]1CCCN1C(=O)[C@@H](N)CS)C(=O)N[C@@H](CCCCN)C(=O)N[C@@H](CC(=O)O)C(=O)N[C@@H](CS)C(=O)N[C@H](C(=O)N[C@@H](CCCCN)C(=O)NCC(=O)N[C@@H](Cc1ccc(O)cc1)C(=O)N[C@@H](CS)C(=O)N[C@@H](CCCNC(=N)N)C(=O)N[C@@H](CS)C(=O)N[C@H](C(=O)N[C@@H](CCCNC(=N)N)C(=O)N[C@@H](CCCCN)C(=O)N[C@@H](CCCCN)C(N)=O)C(C)C)C(C)C [CaNCR63_15-34] (H-CPRSKIKDCVKGYCRCVRKK-NH2; N-terminus assumed),"rough cell surface, lysis and flattening of the cells; also recorded: Filament-like structures",DNA remained in the wells,–,–,–,–,–,–,–,–
FIDCETVADCPTHWAYIYVCEKNKCRYHFKSGRVRPDHQKNRHNRV-OH (cysteines drawn unpaired) [NCR520],–,–,able to kill,25 µM,3.125 µM,25 µM,25 µM,–,effective against five or four strains,–
CC[C@H](C)[C@H](NC(=O)[C@H](CS)NC(=O)[C@H](CO)NC(=O)[C@H](CCCNC(=N)N)NC(=O)[C@H](CO)NC(=O)[C@H](Cc1ccccc1)NC(=O)[C@@H]1CCCN1C(=O)[C@H](CC(C)C)NC(=O)[C@H](Cc1ccc(O)cc1)NC(=O)[C@H](C)N)C(=O)N[C@@H](CO)C(=O)N[C@@H](CC(=O)O)C(=O)N[C@@H](CCCCN)C(=O)N[C@@H](CC(=O)O)C(=O)N[C@@H](CS)C(=O)N1CCC[C@H]1C(=O)N[C@@H](CCC(N)=O)C(=O)N[C@H](C(=O)N[C@@H](CCCCN)C(=O)N[C@@H](CC(N)=O)C(=O)N[C@@H](Cc1ccccc1)C(=O)N[C@@H](CO)C(=O)N[C@@H](C)C(=O)N[C@@H](CCCNC(=N)N)C(=O)N[C@@H](CS)C(=O)N[C@@H](CCCNC(=N)N)C(=O)N[C@@H](CCCCN)C(=O)NCC(=O)N[C@@H](Cc1ccc(O)cc1)C(=O)N[C@@H](CS)C(=O)N[C@@H](CCC(N)=O)C(=O)N[C@@H](Cc1ccccc1)C(=O)N[C@@H](CCCNC(=N)N)C(=O)N[C@H](C(=O)N[C@H](C(=O)N[C@@H](CCCNC(=N)N)C(=O)O)C(C)C)C(C)C)C(C)C [NCR471] (H-AYLPFSRSCISDKDCPQVKNFSARCRKGYCQFRVVR-OH; N-terminus assumed),–,–,–,–,3.125 µM,25 µM,12.5 µM,25 µM,effective against five or four strains,–
CC[C@H](C)[C@H](NC(=O)CNC(=O)[C@H](CCCNC(=N)N)NC(=O)[C@H](CCCCN)NC(=O)[C@H](CCCNC(=N)N)NC(=O)[C@@H](NC(=O)[C@H](CCCCN)NC(=O)[C@H](CS)NC(=O)[C@H](CC(C)C)NC(=O)CNC(=O)CNC(=O)[C@@H](NC(=O)[C@H](CS)NC(=O)[C@H](CCCNC(=N)N)NC(=O)[C@@H](N)Cc1c[nH]cn1)[C@@H](C)CC)C(C)C)C(=O)N[C@@H](CCCCN)C(=O)NCC(=O)N[C@@H](Cc1ccccc1)C(=O)N[C@H](C(=O)N[C@@H](CC(N)=O)C(=O)N[C@H](C(=O)N1CCC[C@H]1C(N)=O)[C@@H](C)CC)[C@@H](C)CC [GoNCR313 (23-44)] (H-HRCIGGLCKVRKRGIKGFINIP-NH2; N-terminus assumed),–,–,–,–,3.125 µM,3.125 µM,–,6.25 µM,–,MBC Klebsiella pneumoniae [12]: 12.5 µM
